Assay results as given in patent US10752588B2 (The Broad Institute, Inc., priority 2014, dated 2020).

Assays:
[1] = biological target: T1, human D2R/β-arrestin (Homo sapiens (Human), UniProt P14416); test: cell-based; settings: β-arrestin Antagonist, CHO-K1 cell line expressing human D2R/β-arrestin; quinpirole used as agonist
[2] = biological target: T1, human D2R/β-arrestin; test: β-Arrestin agonist assay (PathHunter); assay type: cell-based; settings: CHO-K1 cell line expressing human D2R/β-arrestin
Procedure: (§1) The assays can be performed using proper detection reagents either prepared using routine methods known in the art or commercially available (e.g., PathHunter® β-Arrestin Detecting Kit (DiscoveRX)). Cells are grown to the necessary confluence and then detached. The cells are then centrifuged, washed, resuspended, and seeded into a container (e.g., 384-well plate). The cells are incubated (e.g., at 37° C., 5% CO2) for the appropriate period of time (e.g., 24 hours), before various compounds (e.g., a compound of the invention or a control compound) are added to the cells. After incubation of the cells with the compounds, detection reagents (e.g., a buffer containing Emerald II: Galactor-Star as provided DiscoveRX) are added to the cells. The read-out (e.g., luminescence, or fluorescence) is detected using standard equipment.
The detection reagent (9.6 μL, Buffer:Emerald II:Galactor-Star in a 19:5:1 ratio, i.e., 14.06 mL:3.7 mL:0.74 mL=18.5 mL) was then added to the agonist plates.

[3] = biological target: T1, human D2R/β-arrestin; test: cell-based; settings: cAMP Antagonist, CHO-K1 cell line expressing human D2R/β-arrestin; quinpirole used as agonist
[4] = biological target: T1, human D2R/β-arrestin; test: Gi/cAMP agonist assay (Lance Ultra cAMP, Forskolin); assay type: cell-based; settings: CHO-K1 cell line expressing human D2R/β-arrestin
Procedure: as §1, with “PE Lance Ultra cAMP kit (TRF0263)).” for “PathHunter® β-Arrestin Detecting Kit (DiscoveRX)).”, “Afterwards, cAMP inducing agents (e.g., Forskolin) are added to and incubated with” for “After incubation of”, “before” for “with the compounds,”, “cAMP antibody, such” for “buffer containing Emerald II: Galactor-Star”, “ULight-anti-cAMP solution)” for “provided DiscoveRX)”, “Read-out” for “The read-out”
Compounds were pin-transferred (100 nL) to the cells, and incubated for 10 min. at 37° C. […] Eu-cAMP tracer solution (100, PerkinElmer, […] in 17.64 ml kit buffer) and ULight-anti-cAMP solution (100, 120 μL antibody in 17.88 ml kit buffer) was then added to each well.

T1 sequence (P14416 whole entry): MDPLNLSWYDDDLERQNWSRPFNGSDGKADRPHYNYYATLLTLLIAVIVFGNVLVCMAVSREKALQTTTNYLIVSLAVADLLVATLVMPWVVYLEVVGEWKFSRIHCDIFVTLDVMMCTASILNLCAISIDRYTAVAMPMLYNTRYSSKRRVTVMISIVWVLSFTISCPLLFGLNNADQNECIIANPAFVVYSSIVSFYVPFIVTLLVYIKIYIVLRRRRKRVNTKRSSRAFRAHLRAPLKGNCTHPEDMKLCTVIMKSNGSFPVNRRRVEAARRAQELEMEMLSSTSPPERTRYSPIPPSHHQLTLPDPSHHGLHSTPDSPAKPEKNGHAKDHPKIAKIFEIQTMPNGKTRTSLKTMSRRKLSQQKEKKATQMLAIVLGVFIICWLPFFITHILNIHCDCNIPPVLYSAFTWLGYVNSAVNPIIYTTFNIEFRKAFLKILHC

SMILES	IC50 [1]	EC50 [2]	IC50 [3]	EC50 [4]
O=C(NC(c1ccc2c(c1)OC(F)(F)O2)c1ccccn1)C1CCN(CCOc2ccccc2F)CC1 (centres unmarked) [Compound 94, N-((2,2-difluorobenzo[d][1,3]dioxol-5-yl)(pyridin-2-yl)methyl)-1-(2-(2-fluorophenoxy)ethyl)piperidine-4-carboxamide]	100 to 1000 nM	100 to 1000 nM	> 30000 nM	< 100 nM
O=C(NC(c1ccc(F)cc1)c1ccc(F)cc1)C1CCN(CCOc2ccccc2Cl)CC1 [Compound 83, N-(bis(4-fluorophenyl)methyl)-1-(2-(2-chlorophenoxy)ethyl)piperidine-4-carboxamide]	< 100 nM	> 30000 nM	< 100 nM	> 30000 nM
Fc1ccc(C(NCC2CCN(CCOc3ccccc3F)CC2)c2ccccn2)cc1 (centres unmarked) [Compound 122, N-((1-(2-(2-fluorophenoxy)ethyl)piperidin-4-yl)methyl)-1-(4-fluorophenyl)-1-(pyridin-2-yl) methanamine]	100 to 1000 nM	> 30000 nM	100 to 1000 nM	1000 to 10000 nM
Clc1ccc(C(NCC2CCN(CCOc3ccccc3)CC2)c2ccccn2)cc1 (single isomer, unassigned) [Compound 114b, 1-(4-chlorophenyl)-N-((1-(2-phenoxyethyl)piperidin-4-yl)methyl)-1-(pyridin-2-yl)methanamine]	100 to 1000 nM	> 30000 nM	> 30000 nM	100 to 1000 nM
c1ccc(OCCN2CCC(CNC(c3ccc4c(c3)OCO4)c3ccccn3)CC2)cc1 (single isomer, unassigned) [Compound 102a, 1-(benzo[d][1,3]dioxol-5-yl)-N-((1-(2-phenoxyethyl)piperidin-4-yl)methyl)-1-(pyridin-2-yl)methanamine]	1000 to 10000 nM	> 30000 nM	1000 to 10000 nM	> 30000 nM
COCCN1CCC(C(=O)NC(c2ccc(Cl)cc2)c2ccccn2)CC1 (centres unmarked) [Compound 65, N-((4-chlorophenyl)(pyridin-2-yl)methyl)-1-(2-methoxyethyl)piperidine-4-carboxamide]	10000 to 30000 nM	> 30000 nM	1000 to 10000 nM	> 30000 nM
O=C(NC(c1ccc2c(c1)OC(F)(F)O2)c1ccccn1)C1CCN(CCOc2ccc(F)cc2F)CC1 (single isomer, unassigned) [Compound 130a, N-((2,2-difluorobenzo[d][1,3]dioxol-5-yl)(pyridin-2-yl)methyl)-1-(2-(2,4-difluorophenoxy)ethyl)piperidine-4-carboxamide]	1000 to 10000 nM	> 30000 nM	100 to 1000 nM	> 30000 nM
CC(C1CCN(CCOc2ccccc2)CC1)N(C)C(c1ccc(Cl)cc1)c1ccccn1 (centres unmarked) [Compound 97, N-((4-chlorophenyl)(pyridin-2-yl)methyl)-N-methyl-1-(1-(2-phenoxyethyl)piperidin-4-yl)ethan-1-amine]	< 100 nM	> 30000 nM	< 100 nM	> 30000 nM
Fc1ccccc1OCCN1CCC(CNC(c2ccc(Cl)cc2)c2ccccc2F)CC1 (centres unmarked) [Compound 87, 1-(4-chlorophenyl)-N-((1-(2-(2-fluorophenoxy)ethyl)piperidin-4-yl)methyl)-1-(2-fluorophenyl)methanamine]	100 to 1000 nM	> 30000 nM	100 to 1000 nM	> 30000 nM
CN(CC1CCN(CCOc2ccccc2F)CC1)C(c1ccc2c(c1)OCO2)c1ccccn1 (single isomer, unassigned) [Compound 138a, 1-(benzo[d][1,3]dioxol-5-yl)-N-((1-(2-(2-fluorophenoxy)ethyl)piperidin-4-yl)methyl)-N-methyl-1-(pyridin-2-yl)methanamine]	100 to 1000 nM	100 to 1000 nM	> 30000 nM	< 100 nM
O=C(NC(c1ccc(F)cc1)c1ccc(F)cc1)C1CCN(CCOc2ccccc2)CC1 [Compound 47, N-(bis(4-fluorophenyl)methyl)-1-(2-phenoxyethyl)piperidine-4-carboxamide]	1000 to 10000 nM	> 30000 nM	100 to 1000 nM	> 30000 nM
COc1ccccc1C(NC(=O)C1CCN(CCOc2ccccc2)CC1)c1ccccn1 (centres unmarked) [Compound 36, N((2-methoxyphenyl)(pyridin-2-yl)methyl)-1-(2-phenoxyethyl) piperidine-4-carboxamide]	10000 to 30000 nM	> 30000 nM	> 30000 nM	> 30000 nM
COc1ccc(C(NC(=O)C2CCN(CCOc3ccccc3)CC2)c2ccc(Cl)cc2)cc1 (centres unmarked) [Compound 44]	1000 to 10000 nM	> 30000 nM	10000 to 30000 nM	> 30000 nM
O=C(NC(c1ccc(Cl)cc1)c1ccc(F)cn1)C1CCN(CCOc2ccccc2)CC1 (centres unmarked) [Compound 116, N-((4-chlorophenyl)(5-fluoropyridin-2-yl)methyl)-1-(2-phenoxyethyl)piperidine-4-carboxamide]	1000 to 10000 nM	> 30000 nM	> 30000 nM	100 to 1000 nM
O=C(NC(c1ccc(F)cc1)c1ccccc1F)C1CCN(CCOc2ccccc2Cl)CC1 (centres unmarked) [Compound 85, 1-(2-(2-chlorophenoxy)ethyl)-N-((2-fluorophenyl)(4-fluorophenyl)methyl)piperidine-4-carboxamide]	< 100 nM	> 30000 nM	< 100 nM	> 30000 nM
CN(CC1CCN(CCOc2ccccc2F)CC1)C(c1ccc(F)cc1)c1ccccn1 (centres unmarked) [Compound 75, N-((1-(2-(2-fluorophenoxy)ethyl)piperidin-4-yl)methyl)-1-(4-fluorophenyl)-N-methyl-1-(pyridin-2-yl)methanamine]	100 to 1000 nM	> 30000 nM	100 to 1000 nM	< 100 nM
FC(F)(F)CN(CC1CCN(CCOc2ccccc2)CC1)C(c1ccc(Cl)cc1)c1ccccn1 (single isomer, unassigned) [Compound 125b, N-((4-chlorophenyl)(pyridin-2-yl)methyl)-2,2,2-trifluoro-N-((1-(2-phenoxyethyl)piperidin-4-yl)methyl)ethanamine]	100 to 1000 nM	> 30000 nM	1000 to 10000 nM	> 30000 nM
COc1ccccc1OCCN1CCC(C(=O)NCc2nccc3ccccc23)CC1 [Compound 108, N-(isoquinolin-1-ylmethyl)-1-(2-(2-methoxyphenoxy)ethyl)piperidine-4-carboxamide]	1000 to 10000 nM	> 30000 nM	> 30000 nM	< 100 nM
CN(CC1CCN(CCOc2ccccc2)CC1)C(c1ccc(F)cc1)c1ccccn1 (single isomer, unassigned) [Compound 74a, 1-(4-fluorophenyl)-N-methyl-N-((1-(2-phenoxyethyl)piperidin-4-yl)methyl)-1-(pyridin-2-yl)methanamine]	1000 to 10000 nM	> 30000 nM	> 30000 nM	1000 to 10000 nM
O=C(NC(c1ccccc1F)c1ccccc1F)C1CCN(CCOc2ccccc2)CC1 [Compound 48, N-(bis(2-fluorophenyl)methyl)-1-(2-phenoxyethyl)piperidine-4-carboxamide]	1000 to 10000 nM	> 30000 nM	> 30000 nM	1000 to 10000 nM
CC1(C(=O)NC(c2ccc(F)cc2)c2ccccn2)CCN(CCOc2ccccc2)CC1 (single isomer, unassigned) [Compound 69a, N-((4-fluorophenyl)(pyridin-2-yl)methyl)-4-methyl-1-(2-phenoxyethyl)piperidine-4-carboxamide]	1000 to 10000 nM	100 to 1000 nM	> 30000 nM	100 to 1000 nM
O=C(NC(c1ccc(F)cc1)c1ccccn1)C1CCN(CCOc2cc(F)ccc2F)CC1 (centres unmarked) [Compound 57, 1-(2-(2,5-difluorophenoxy)ethyl)-N-((4-fluorophenyl)(pyridin-2-yl)methyl) piperidine-4-carboxamide]	100 to 1000 nM	> 30000 nM	> 30000 nM	100 to 1000 nM
O=C(NC(c1cccc(OC(F)(F)F)c1)c1ccccn1)C1CCN(CCOc2ccccc2F)CC1 (single isomer, unassigned) [Compound 93a, 1-(2-(2-fluorophenoxy)ethyl)-N-(pyridin-2-yl(3-(trifluoromethoxy)phenyl)methyl)piperidine-4-carboxamide]	1000 to 10000 nM	> 30000 nM	100 to 1000 nM	10000 to 30000 nM
